# Reference: publication PMC7663272, “Discovery of Tricyclic Pyranochromenone as Novel Bruton’s Tyrosine Kinase Inhibitors with In Vivo Antirheumatic Activity” (International Journal of Molecular Sciences, 2020)
# How the values were obtained:
# [1] = target: T1, ERBB4 (Homo sapiens, UniProt Q15303); assay: HotSpot kinase enzymatic assay, ERBB4; format: biochemical
# T1 construct: purchased Reaction Biology Corporation
# Method: (§1) Therefore, efforts have focused on developing new compounds with good selectivity profiles. […] Compound 8 was selective against BTK. The biochemical activities of compound 8 differed among TEC family kinases. […] The inhibitory potential of compound 8 differed between members of the EGFR family. […] The inhibitory activity of compound 8 against JAK3 was also low.
# (§2) Kinase enzymatic assays for BTK, BMX, TXK, TEC, ITK, EGFR, ERBB2, ERBB4, and JAK3 were performed at Reaction Biology Corporation (www.reactionbiology.com, Malvern, PA, USA) using the HotSpot assay platform. Briefly, specific kinase/substrate pairs and the required cofactors were prepared in a reaction buffer comprising 20 mM HEPES (pH 7.5), 10 mM MgCl2, 1 mM EGTA, 0.02% Brij35, 0.02 mg/mL BSA, 0.1 mM Na3VO4, 2 mM DTT, and 1% DMSO. The compounds were added to the reaction mixture and allowed to incubate. Approximately 20 min later, a mixture of ATP (Sigma-Aldrich, St. Louis, MO, USA) and ^33P ATP (PerkinElmer, Waltham, MA, USA) was added to the reaction mixture at a final concentration of 10 μM. The reactions were performed at room temperature for 120 min; subsequently, the reactions were spotted onto P81 ion exchange filter papers (Whatman Inc., Maidstone, UK). Any unbound phosphate was removed by thoroughly washing the filter papers with 0.75% phosphoric acid. […]
# [2] = tested on: collagen-induced arthritis (CIA); assay: Murine model of collagen-induced arthritis (CIA); format: in vivo
# Method: The in vivo efficacy of compound 8 was evaluated in a murine inflammatory model of collagen-induced arthritis (CIA). The study included four groups: a vehicle-treated control group and three treatment groups. The treatment groups comprised a dexamethasone-treated group, in which dexamethasone served as the positive control, and two treatment groups, in which animals were treated with compound 8 at doses of 10 and 50 mg/kg. Compound 8 was administered once daily for 15 days by oral gavage, and the in vivo efficacy was evaluated by measuring the clinical score and foot volume. […] There were no significant changes in the body weights of animals in all the treatment groups (data not shown) during treatment.
# The animal study was approved by the Institutional Animal Care and Use Committee (IACUC) of the Korea Research Institute of Bioscience and Biotechnology on March 15, 2017, under approval number KRIBB-AEC-17090. Male DBA1/JNCrli mice (7 weeks old) were purchased from Japan CRL, Inc. The mice were housed in specific pathogen-free (SPF) conditions and were allowed ad libitum access to food and water. After 7 days of acclimatization, the mice were immunized with 0.05 mL of a type II collagen emulsion (Hooke Kit^TM Chicken Collagen, Cat. No. EK-0210 from Hooke) and Freund’s complete adjuvant by subcutaneous injection at 1.5 cm distal from the base of the tail. After 21 days, the immunized mice were administered a booster injection with 0.05 mL of a type II collagen emulsion (Hooke Kit^TM Chicken Collagen, Cat. No. EK-0211 from Hooke) and Freund’s incomplete adjuvant. The emulsions were prepared according to the manufacturer’s instructions. On day 21, the mice with CIA were randomized into four groups. The animals in the four groups were administered either 0.3 mg/kg dexamethasone (n = 5), 10 mg/kg compound 8 (n = 5), 50 mg/kg compound 8 (n = 5), or vehicle (n = 5), once a day, for […], orally. The vehicle, in which all test compounds were suspended, comprised DMAC (10%), Tween 80 (10%), and DW (80%). Clinical arthritis scores and body weights were assessed three times per week for 15 days. The paw volumes were measured using a LE7500 plethysmometer (Panlab, Barcelona, Spain) on days 0 and 42.
# [3] = target: T2, TXK (Homo sapiens, UniProt P42681); assay: HotSpot kinase enzymatic assay, TXK; format: biochemical
# T2 construct: purchased Reaction Biology Corporation
# T2 sequence (P42681 1-527): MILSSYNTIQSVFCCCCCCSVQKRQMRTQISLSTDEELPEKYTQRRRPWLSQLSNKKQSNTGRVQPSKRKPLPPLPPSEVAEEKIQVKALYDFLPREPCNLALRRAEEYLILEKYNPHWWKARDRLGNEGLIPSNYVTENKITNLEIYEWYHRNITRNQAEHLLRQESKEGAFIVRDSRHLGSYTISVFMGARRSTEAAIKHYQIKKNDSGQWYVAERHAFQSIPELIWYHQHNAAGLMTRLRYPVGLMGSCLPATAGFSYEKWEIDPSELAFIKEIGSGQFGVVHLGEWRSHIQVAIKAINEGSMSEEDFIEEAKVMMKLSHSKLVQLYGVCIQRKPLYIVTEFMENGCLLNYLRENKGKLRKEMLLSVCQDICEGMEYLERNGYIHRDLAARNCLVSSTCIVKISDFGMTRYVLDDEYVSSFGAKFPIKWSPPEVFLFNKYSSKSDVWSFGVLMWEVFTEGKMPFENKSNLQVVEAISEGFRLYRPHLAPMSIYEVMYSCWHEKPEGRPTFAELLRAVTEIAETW
# Method: as §1, §2
# T1 sequence (Q15303 26-1308): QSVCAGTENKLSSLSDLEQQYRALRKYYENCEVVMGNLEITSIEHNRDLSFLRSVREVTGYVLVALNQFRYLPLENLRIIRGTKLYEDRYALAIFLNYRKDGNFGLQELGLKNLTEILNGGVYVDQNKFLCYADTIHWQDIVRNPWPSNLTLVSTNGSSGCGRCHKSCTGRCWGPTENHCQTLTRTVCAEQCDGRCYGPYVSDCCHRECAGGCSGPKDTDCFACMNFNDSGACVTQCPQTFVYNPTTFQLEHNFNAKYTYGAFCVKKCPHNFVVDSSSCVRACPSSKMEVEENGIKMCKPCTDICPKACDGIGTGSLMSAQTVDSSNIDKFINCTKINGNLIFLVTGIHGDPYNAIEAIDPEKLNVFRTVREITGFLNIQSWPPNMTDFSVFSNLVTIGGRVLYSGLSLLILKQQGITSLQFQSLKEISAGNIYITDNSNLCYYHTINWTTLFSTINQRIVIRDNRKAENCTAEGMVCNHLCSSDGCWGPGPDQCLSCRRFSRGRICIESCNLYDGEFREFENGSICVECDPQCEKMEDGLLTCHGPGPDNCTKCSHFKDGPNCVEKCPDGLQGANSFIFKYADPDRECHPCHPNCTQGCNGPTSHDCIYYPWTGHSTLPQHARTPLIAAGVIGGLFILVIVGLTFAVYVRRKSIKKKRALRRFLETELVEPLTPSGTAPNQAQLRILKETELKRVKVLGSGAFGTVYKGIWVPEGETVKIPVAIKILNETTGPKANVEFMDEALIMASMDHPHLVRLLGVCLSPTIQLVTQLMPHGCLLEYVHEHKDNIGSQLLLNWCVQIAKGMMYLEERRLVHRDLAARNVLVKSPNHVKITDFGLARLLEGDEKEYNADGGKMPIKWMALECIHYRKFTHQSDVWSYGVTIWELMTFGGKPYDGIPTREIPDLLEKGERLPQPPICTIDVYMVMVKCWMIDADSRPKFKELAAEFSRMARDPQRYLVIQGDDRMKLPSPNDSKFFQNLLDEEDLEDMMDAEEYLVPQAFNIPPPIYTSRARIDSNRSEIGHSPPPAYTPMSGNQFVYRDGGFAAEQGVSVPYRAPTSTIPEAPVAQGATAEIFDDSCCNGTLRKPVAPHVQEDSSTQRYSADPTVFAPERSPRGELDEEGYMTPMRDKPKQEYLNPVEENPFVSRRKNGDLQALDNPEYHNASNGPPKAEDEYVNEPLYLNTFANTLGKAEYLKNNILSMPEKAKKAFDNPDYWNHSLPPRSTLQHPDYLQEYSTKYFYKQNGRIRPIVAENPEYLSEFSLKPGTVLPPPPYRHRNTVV
smiles,measurement,setting,value
"C=CC(=O)O[C@H]1Cc2cc3ccc(=O)oc3cc2OC1(C)C [Compound 8, (7S)-(+)-Acrylic acid, 8,8-dimethyl-2-oxo-6,7-dihydro-2H,8H-pyrano [3,2-g]chromen-7-yl ester]",inhibitory activity against ERBB4 (in words),[1],inactive
same,toxicity,"[2]; mice with CIA, 10 and 50 mg/kg oral",no obvious toxicity
same,efficacy compared with dexamethasone,"[2]; mice, 50 mg/kg oral, dexamethasone 0.3 mg/kg",comparable to that of dexamethasone at 0.3 mg/kg
same,clinical scores vs control,"[2]; mice, 10 and 50 mg/kg, daily oral, t-test",differed significantly from those with the control
same,severity of CIA (clinical score and foot volume),"[2]; mice, 10 and 50 mg/kg, once daily, oral gavage, 15 days",significantly reduced the severity of CIA in a dose-dependent manner
same,inhibitory activity against TXK (in words),[3],strong inhibitory activity
same,inhibition at 10 µM,"[3]; 10 µM, mean of two experiments",88.5%
